What was measured:
Assay type in all cases: in vivo
Avena fatua (AVEFA) [1] = test: Example B.1 post-emergence spray, controlled-environment cabinet, minimal irrigation, visual scoring; conditions: A1 60 g a.i./ha (Genapol LRO 324, sodium lactate 150 g a.i./ha where combined); 14 days after application; 0%=no damage, 100%=all plants dead; 50% rel. humidity
Method: (§1) The individual components herbicide, surfactant and humectant with regard to type and application rate as stated in Tables 1-4 were added with stirring to a water application rate of 300 l/ha so that a homogeneous spray mixture was formed. The active substances rimsulfuron and nicosulfuron in the commercially available formulations Cato® WG25 (Du Pont) and Motivell® (BASF) were used for this purpose, respectively. Iodosulfuron-methyl-sodium and mesosulfuron-methyl were added in each case as 20 percent water-dispersible powders. Foramsulfuron was used as 50 percent water-dispersible granules. The surfactants used were Genapol® LRO as 70 percent paste (Clariant) and Synperonic® A7 (Unichema).
(§2) Visual scoring was carried out using a percentage scale of 0%=no damage to 100%=all plants dead.
(§3) Seeds of the harmful plants AVEFA and LOLMU were sown in a sandy loam soil in round pots type 13 in a controlled-environment cabinet and watered slightly. During the entire experiment period, the substrate only received minimal irrigation. A daytime temperature of 18° C. and a nighttime temperature of 16° C. was adhered to, a uniform day length of 16 hours being achieved by additional illumination with sodium vapor lamps (approx. 7000 lux). The relative atmospheric humidity was 50%. […]

[2] = test system: Lolium multiflorum (LOLMU); test: as above; conditions: A1 60 g a.i./ha (Genapol LRO 324, sodium lactate 150 g a.i./ha where combined); 14 days after application; 0%=no damage, 100%=all plants dead; 50% rel. humidity
Method: as §1, §2, §3

Bromus tectorum (BROTE) = test: Example B.3 post-emergence spray, pots in the open, minimal irrigation, visual scoring; conditions: A1 10 g a.i./ha (surfactant 300, humectant 300 g a.i./ha where combined), 28 days after application
Method: as §1, §2
Seeds of the harmful plant BROTE were sown in a sandy loam soil in round pots type 13 in the open and watered slightly. During the entire experimental period, the substrate only received minimal irrigation. Four weeks after sowing, the plants were treated on a laboratory spray conveyor with spray mixtures of components mesosulfuron-methyl (A1), Genapol® LRO and sodium lactate, A1, Synperonic®A7 and sodium lactate and A1, Genapol® LRO and propylene glycol, the spray mixtures being prepared as in Example A. The water application rate for the spray application of the preparations was 300 l/ha. […]

[3] = test system: Alopecurus myosuroides (ALOMY); test: Example B.2 post-emergence spray, greenhouse, visual scoring; conditions: 28 days after application
Method: as §1, §2
(§4) Seeds of the harmful plants LOLMU, ALOMY, AVEFA, ECHCG and DIGSA were sown in a sandy loam soil in round pots type 7 in a greenhouse and watered slightly. A daytime temperature of 22 to 24° C. and a nighttime temperature of 16 to 18° C. was adhered to, a uniform day length of 16 hours being achieved by additional illumination with sodium vapor lamps (approx. 7000 lux). The relative atmospheric humidity was 60 to 80%. Two weeks after sowing, the plants were treated on a laboratory spray conveyor with the spray mixtures of rimsulfuron (A2), nicosulfuron (A3), iodosulfuron-methyl sodium (A4) and foramsulfuron (A5) and of combinations of A2, A3, A4 and A5 with Genapol® LRO and sodium lactate, the spray mixtures being prepared as in Example A. The water application rate for the spray application of the preparations was 300 l/ha. After the treatment, the plants were returned to the greenhouse.

Avena fatua (AVEFA) [4] = test: as above; conditions: 28 days after application
Method: as §1, §2, §4

[5] = test system: Echinochloa crus-galli (ECHCG); test: as above; conditions: 28 days after application
Method: as §1, §2, §4

[6] = test system: Digitaria adscendens (DIGSA); test: as above; conditions: 28 days after application
Method: as §1, §2, §4

[7] = test system: Lolium multiflorum (LOLMU); test: as above; conditions: 28 days after application
Method: as §1, §2, §4

SMILES	Action [%] against harmful plants ALOMY ([3]; herbicide 20 g a.i./ha)	Action [%] against harmful plants AVEFA (Avena fatua (AVEFA) [4]; herbicide 20 g a.i./ha)	Action [%] against harmful plants ECHCG ([5]; herbicide 20 g a.i./ha)	Action [%] against harmful plants DIGSA ([6]; herbicide 20 g a.i./ha)	Action [%] against harmful plants LOLMU ([7]; herbicide 20 g a.i./ha)	further results
COC(=O)c1ccc(CNS(C)(=O)=O)cc1S(=O)(=O)NC(=O)Nc1nc(OC)cc(OC)n1 [A1, methyl 2-[3-(4,6-dimethoxypyrimidin-2-yl)ureidosulfonyl]4-methanesulfonamido-methylbenzoate]						Action [%] against harmful plants AVEFA (Avena fatua (AVEFA) [1]): 10%; Action [%] against harmful plants LOLMU [2]: 10%; Action [%] against harmful plants BROTE (Bromus tectorum (BROTE)): 12.5%
COc1cc(OC)nc(NC(=O)NS(=O)(=O)c2ncccc2C(=O)N(C)C)n1 [A3, 1-(3-N,N-dimethylaminocarbonylpyridin-2-ylsulfonyl)-3-(4,6-dimethoxypyrimidin-2-yl)urea]	0%	0%	0%			
COc1cc(OC)nc(NC(=O)NS(=O)(=O)c2cc(NC=O)ccc2C(=O)N(C)C)n1 [A5, N,N-dimethyl-2-[3-(4,6-dimethoxypyrimidin-2-yl)ureidosulfonyl]4-formylamino-benzamide]	70%	60%	30%	0%	50%	
CCS(=O)(=O)c1cccnc1S(=O)(=O)NC(=O)Nc1nc(OC)cc(OC)n1 [A2]						Action [%] against harmful plants ALOMY ([3]; herbicide 5 g a.i./ha): 70%; Action [%] against harmful plants AVEFA (Avena fatua (AVEFA) [4]; herbicide 5 g a.i./ha): 0%; Action [%] against harmful plants DIGSA ([6]; herbicide 5 g a.i./ha): 30%; Action [%] against harmful plants ECHCG ([5]; herbicide 5 g a.i./ha): 10%; Action [%] against harmful plants LOLMU ([7]; herbicide 5 g a.i./ha): 60%
COC(=O)c1ccc(I)cc1S(=O)(=O)NC(=O)Nc1nc(C)nc(OC)n1 [A4, 3-(4-methoxy-6-methyl-1,3,5-triazin-2-yl)-1-(2-methoxycarbonyl-5-iodophenyl-sulfonyl)urea]	50%	60%	70%	30%	60%	

— US20020058591A1, “Herbicidal compositions” (priority 2000, published 2002)
